Results: the supplement of paper PMC10307832

Columns and labels:
Experiment in all cases: relative viability (nuclei count vs DMSO), 5 days (fraction); higher = more cells survive
Seliciclib + Foretinib = compound: CC[C@H](CO)Nc1nc(NCc2ccccc2)c2ncn(C(C)C)c2n1 [Seliciclib] + COc1cc2c(Oc3ccc(NC(=O)C4(C(=O)Nc5ccc(F)cc5)CC4)cc3F)ccnc2cc1OCCCN1CCOCC1 [Foretinib] (partner 0.25 µM)
In short: (§1)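 Medians of duplicate plates are given as relative viability. That measure is the nuclei count in treated wells divided by the count in vehicle wells. Counts were taken on 4× images of lung cancer cell lines in 1536-well plates, 5 days after pin-tool dosing the day after seeding with one drug alone or a fixed anchor-drug dose plus five library-drug doses (not always all listed) in √10 steps.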

Seliciclib + AZD7762 = compound: CC[C@H](CO)Nc1nc(NCc2ccccc2)c2ncn(C(C)C)c2n1 [Seliciclib] + NC(=O)Nc1cc(-c2cccc(F)c2)sc1C(=O)N[C@H]1CCCNC1 [AZD7762] (partner 0.2 µM)
In short: as §1

Seliciclib + Vorinostat = compound: CC[C@H](CO)Nc1nc(NCc2ccccc2)c2ncn(C(C)C)c2n1 [Seliciclib] + O=C(CCCCCCC(=O)Nc1ccccc1)NO [Vorinostat] (partner 1 µM)
In short: as §1

Seliciclib + Pictilisib = compound: CC[C@H](CO)Nc1nc(NCc2ccccc2)c2ncn(C(C)C)c2n1 [Seliciclib] + CS(=O)(=O)N1CCN(Cc2cc3nc(-c4cccc5[nH]ncc45)nc(N4CCOCC4)c3s2)CC1 [Pictilisib] (partner 1 µM)
In short: as §1

| Cell Line | relative viability (Seliciclib + Foretinib; first compound 0.08 µM) | relative viability (Seliciclib + Foretinib; first compound 0.253 µM) | relative viability (Seliciclib + Foretinib; first compound 0.8 µM) | relative viability (Seliciclib + Foretinib; first compound 2.53 µM) | relative viability (Seliciclib + Foretinib; first compound 8 µM) | relative viability (Seliciclib + AZD7762; first compound 0.08 µM) | relative viability (Seliciclib + AZD7762; first compound 0.253 µM) | relative viability (Seliciclib + AZD7762; first compound 0.8 µM) | relative viability (Seliciclib + AZD7762; first compound 2.53 µM) | relative viability (Seliciclib + AZD7762; first compound 8 µM) | relative viability (Seliciclib + Vorinostat; first compound 0.08 µM) | relative viability (Seliciclib + Vorinostat; first compound 0.253 µM) | relative viability (Seliciclib + Vorinostat; first compound 0.8 µM) | relative viability (Seliciclib + Vorinostat; first compound 2.53 µM) | relative viability (Seliciclib + Vorinostat; first compound 8 µM) | relative viability (Seliciclib + Pictilisib; first compound 0.08 µM) | relative viability (Seliciclib + Pictilisib; first compound 0.253 µM) | relative viability (Seliciclib + Pictilisib; first compound 0.8 µM) | relative viability (Seliciclib + Pictilisib; first compound 2.53 µM) | relative viability (Seliciclib + Pictilisib; first compound 8 µM) |
| --- | --- | --- | --- | --- | --- | --- | --- | --- | --- | --- | --- | --- | --- | --- | --- | --- | --- | --- | --- | --- |
| NCI-H1437 | 1.2 | 1.31 | 1.26 | 1.31 | 1.18 | 1.06 | 1.19 | 1.17 | 0.999 | 1.08 | 0.811 | 0.901 | 0.69 | 0.633 | 0.374 | 0.484 | 0.377 | 0.439 | 0.394 | 0.331 |
| NCI-H1651 | 0.583 | 0.754 | 0.819 | 0.857 | 0.75 | 0.474 | 0.464 | 0.488 | 0.504 | 0.673 | 0.515 | 0.551 | 0.542 | 0.477 | 0.457 | 0.484 | 0.636 | 0.563 | 0.45 | 0.487 |
| LCLC-103H | 0.812 | 0.878 | 0.708 | 0.739 | 0.589 | 0.793 | 0.676 | 0.65 | 0.696 | 0.74 | 0.753 | 0.764 | 0.733 | 0.448 | 0.68 | 0.819 | 0.673 | 0.627 | 0.434 | 0.576 |
| NCI-H1666 | 0.97 | 1.04 | 0.987 | 1 | 0.662 | 0.862 | 0.959 | 0.936 | 0.793 | 0.818 | 1.01 | 1 | 0.978 | 1.01 | 0.749 | 0.33 | 0.526 | 0.478 | 0.353 | 0.439 |
| NCI-H1734 | 0.809 | 0.702 | 0.802 | 0.793 | 0.738 | 0.533 | 0.43 | 0.584 | 0.561 | 0.642 | 0.802 | 0.623 | 0.969 | 0.716 | 0.456 | 0.452 | 0.477 | 0.385 | 0.379 | 0.41 |
| EPLC-272H | 0.707 | 0.72 | 0.56 | 0.623 | 0.494 | 0.203 | 0.17 | 0.208 | 0.329 | 0.347 | 0.43 | 0.506 | 0.476 | 0.311 | 0.405 | 0.316 | 0.338 | 0.287 | 0.174 | 0.3 |
| BEN | 0.615 | 0.576 | 0.746 | 0.621 | 0.592 | 0.808 | 0.584 | 0.694 | 0.672 | 0.61 | 0.543 | 0.533 | 0.55 | 0.502 | 0.489 | 0.596 |  | 0.549 | 0.675 | 0.545 |
| ABC-1 | 1.04 | 0.987 | 1.17 | 1.02 | 1.2 | 0.944 | 0.764 | 0.782 | 0.719 | 0.637 | 0.996 | 0.953 | 1.29 |  | 0.774 | 0.773 | 0.927 | 0.619 | 0.42 | 0.424 |
| HCC-15 | 1.06 | 1.13 | 0.968 | 0.959 | 0.724 | 1.09 | 1.37 | 1.22 | 1.19 | 1.02 | 0.893 | 0.855 | 0.838 | 0.747 | 0.761 | 0.705 | 0.857 | 0.473 | 0.791 | 0.548 |
| NCI-H1793 | 0.706 | 0.6 | 0.654 | 0.712 | 0.456 | 0.51 | 0.45 | 0.547 | 0.792 | 1.09 | 0.707 | 0.718 | 0.59 | 0.716 | 0.439 | 0.282 | 0.339 | 0.317 | 0.32 | 0.294 |
| PC-3 [JPC-3] | 1.07 | 1.09 | 0.997 | 0.997 | 0.809 | 0.994 | 1 | 0.77 | 0.617 | 0.718 | 0.796 | 0.957 | 0.876 | 0.601 | 0.633 | 0.825 | 0.954 | 0.652 | 0.712 | 0.652 |
| NCI-H1993 | 0.742 | 0.722 | 0.723 | 0.694 | 0.756 | 0.778 | 0.739 | 0.843 | 0.662 | 0.63 | 0.836 | 0.931 | 0.883 | 0.559 | 0.498 | 0.816 | 0.703 | 0.847 | 0.777 | 0.847 |
| NCI-H1944 | 0.881 | 0.866 | 0.829 | 0.9 | 0.554 | 0.521 | 0.473 | 0.503 | 0.584 | 0.636 | 0.562 | 0.527 | 0.466 | 0.552 | 0.338 | 0.375 | 0.35 | 0.333 | 0.283 | 0.303 |
| NCI-H1915 | 1.09 | 1.15 | 1.05 | 1.09 | 0.815 | 0.714 | 0.591 | 0.826 | 0.817 | 0.717 | 0.499 | 0.532 | 0.611 | 0.492 | 0.421 | 0.918 | 1.05 | 0.824 | 0.839 | 0.803 |
| RERF-LC-KJ | 0.828 | 0.748 | 0.83 | 0.922 | 0.803 | 0.861 | 0.894 | 0.992 | 0.837 | 0.789 | 0.698 | 0.641 | 0.661 | 0.55 | 0.439 | 0.431 | 0.511 | 0.633 | 0.59 | 0.443 |
| LOU-NH91 | 0.9 | 0.904 | 0.885 | 0.905 | 0.739 |  | 0.715 | 0.794 | 0.702 | 0.569 |  | 0.863 | 0.803 | 0.778 | 0.613 | 0.49 | 0.573 | 0.495 | 0.484 | 0.468 |
